Consider 3 compounds from patent US20250197356A1, “METHOD FOR SYNTHESIZING NUCIFERINE OR DERIVATIVE THEREOF, DERIVATIVE OF NUCIFERINE AND USE THEREOF” (HUAQIAO UNIVERSITY, priority 2022, published 2025).

In data set [1] the test system is hyperlipidemia rats. The experiment in a line: Liver tissue homogenate biochemical indicators in high-fat diet hyperlipidemia rats. The class given is in vivo, SD rats. The following applies: for CAT (U/mgprot) / GSH (μmol/gprot) / GSH-Px (U/mgprot) / HL (U/mgprot) / LPL (U/mgprot) / MDA (nmol/mgprot) / NEFA (μmol/g prot) / TG (mmol/g prot): liver tissue, 20 mg/(kg d) by gastric gavage, 4 weeks, x ± s, n = 9. From the text:
(§1) Animals: 54 SPF-grade SD rats, weighing 120±10 g, provided by Laboratory Animal Business Department, Shanghai Family Planning Research Institute, China, Animal license number: SCXK(Shanghai)2018-0006.
(§2) Drug to be tested: Nuciferine purchased from Shanghai Aladdin Biochemical Technology Co., Ltd., China, and its derivatives (purity >99%) that were synthesized in the laboratory by the methods of Examples 2-7.
(§3) Other reagents: AST, ALT, TC, TG, NEFA, Bun, Cr, CAT, GSH-Px, GSH, MDA test kits, purchased from Nanjing Jiancheng Bioengineering Institute, China; HL and PL test kits, purchased from Jianglai Biotechnology Co., Ltd., China; experimental reagents such as anhydrous ethanol, xylene, isopropanol neutral gum, purchased from Sinopharm Chemical Reagent Co., Ltd., China; HE dye solution, DAB color development agent, and oil red O dye solution, purchased from KeyGEN Biotechnology Co., Ltd, China; Antibodies IL-6 and TNF-α, purchased from Abcam Limited.
(§4) Modeling scheme: 54 adult rats of 120±10 g were selected and fed adaptively for three days. They were then randomly divided to 6 groups, 9 animals for each group. They were blank control group, model group, positive control group, nuciferine group, and nuciferine structural modification group. The blank control group was fed with normal diet. […] The feeding and modeling time was 5 weeks. Within 4 weeks after modeling, continuous administration was performed: the blank control group and model group were given 0.2 mL of distilled water by gastric gavage; the positive control group was administrated 20 mg/(kg d) of simvastatin; while the treatment group was administrated 20 mg/(kg d) of nuciferine or 20 mg/(kg d) of a derivative of nuciferine (compounds 6a-6f).
(§5) Liver tissue sample collection: the rats were killed by dislocation, and the liver was taken out immediately after death, which was observed by naked eye to find out whether there was abnormal color and lesions, and was then rinsed with ice normal saline. The left lobe of the liver was quickly cut into small pieces and fixed in 10% formaldehyde overnight for sectioning. The tissue of the right lobe of the liver was quickly wrapped in tin box and stored at −80° C. for later use.
Preparation of 10% liver homogenate: the liver wrapped in tin box and stored in the ultra-low temperature freezer at −80° C. was taken out, and quickly placed on an ice box. 0.2 g of liver tissue was accurately taken, and ice normal saline with a volume 9 times that of the liver issue was added thereto. 10% tissue homogenate was formed by grounding and mixing, and then centrifuged at 3000 r/min and 4° C. for 10 min. The supernatant was collected for later use.
(§6) Biochemical indicator determination: indicators AST, ALT, TC, TG, NEFA, Bun, Cr, CAT, GSH-Px, GSH, MDA, HL, PL were determined according to the instructions of the kits.

Data set [2] concerns hyperlipidemia rats. The data set can be described thus: Liver and kidney indexes in high-fat diet hyperlipidemia rats. Format: in vivo, SD rats. The following applies: 20 mg/(kg d) by gastric gavage, 4 weeks, x ± s, n = 9.
Excerpt: as §1
(§7) Modeling scheme: 54 adult rats of 120±10 g were selected and fed adaptively for three days. They were then randomly divided to 6 groups, 9 animals for each group. They were blank control group, model group, positive control group, nuciferine group, and nuciferine structural modification group. The blank control group was fed with normal diet. […] The feeding and modeling time was 5 weeks.
as §5

Data set [3] has as its system hyperlipidemia rats. The data set can be described thus: Liver appearance and HE histopathological observation in hyperlipidemia rats. The following applies: compared with the model group, 20 mg/(kg d). The class given is in vivo, SD rats.
Excerpt: as §1, §7, §5

Data set [4] relates to hyperlipidemia rats. The data set can be described thus: Serum biochemical indicators in high-fat diet hyperlipidemia rats. Format: in vivo, SD rats. The following applies: for LDL-C / TC / TG / ALT (U/L) / AST (U/L) / Bun / Cr: serum, 20 mg/(kg d) by gastric gavage, 4 weeks; for ALT (U/L) / AST (U/L) / Bun / Cr: x ± s, n = 9.
Excerpt: as §1, §2, §3, §4
Blood sample collection: 24 h after the last gastric gavage administration, eyeballs were taken out and blood was drawn. Whole blood was collected in an EP tube, and centrifuged at 3000 r/min and 4° C. for 10 min, and the supernatant was collected and stored at −20° C. for blood biochemical indicator test.
as §6

In another data set the test system is TNF-α. The data set can be described thus: Immunohistochemistry of liver of hyperlipidemia rats. The class given is in vivo, SD rats. The following applies: compared with the model group, 20 mg/(kg d).
Excerpt: as §1, §2, §3
(§8) Modeling scheme: 54 adult rats of 120±10 g were selected and fed adaptively for three days. They were then randomly divided to 6 groups, 9 animals for each group. They were blank control group, model group, positive control group, nuciferine group, and nuciferine structural modification group. The blank control group was fed with normal diet. […] The feeding and modeling time was 5 weeks. […]

In a further data set the test system is IL-6. Described as above. The class given is in vivo, SD rats. The following applies: compared with the model group, 20 mg/(kg d).
Excerpt: as §1, §2, §3, §8

Data set [5] concerns hyperlipidemia rats. The data set can be described thus: Oil red O staining of liver in hyperlipidemia rats. The following applies: compared with the model group, 20 mg/(kg d). Format: in vivo, SD rats.
Excerpt: as §1, §2
as §4, with “6a-6f). […]” for “6a-6f).”

The conditions of data set [6]: TCMSP database, screening threshold OB ≥30%; cited from earlier work.

Molecules are shown by their SMILES.

On to `COc1cc2c3c(c1OC)-c1ccccc1CC3N(C(=O)c1ccc(F)cc1)CC2` (centres unmarked) [Compound 6b, p-Fluorobenzoylnuciferine], for which, in the data set with hyperlipidemia rats [1], the “CAT (U/mgprot)” value came to 25.90 ± 4.29 U/mgprot, the “GSH (μmol/gprot)” value is on record as 365.04 ± 71.78 μmol/gprot, the “GSH-Px (U/mgprot)” value amounted to 532.14 ± 30.92 U/mgprot and the “HL (U/mgprot)” value came to 0.51 ± 0.05 U/mgprot. Also, in the data set on hyperlipidemia rats [1], the “LPL (U/mgprot)” value turned out to be 0.29 ± 0.10 U/mgprot, the “MDA (nmol/mgprot)” value is 1.03 ± 0.33 nmol/mgprot, the “NEFA (μmol/g prot)” value is 106.32 ± 22.95 μmol/g prot and the “TG (mmol/g prot)” value came out at 0.13 ± 0.02 mmol/g prot. Besides, in the data set with hyperlipidemia rats [2], the “Kidney index (%)” value is 0.68 ± 0.02 % and the “Liver index (%)” value was found to be 4.58 ± 0.23 %. In addition, the “Liver appearance (photographs, FIG. 8)” value in the data set with hyperlipidemia rats [3] was “more brittle”. Moreover, in the data set with hyperlipidemia rats [4], the “LDL-C” value amounted to 0.68 ± 0.16 mmol/L, the “TC” value came out at 2.01 ± 0.14 mmol/L, the “TG” value turned out to be 0.57 ± 0.08 mmol/L and the “ALT (U/L)” value came to 16.43 ± 9.51 U/L. Besides, in the data set with hyperlipidemia rats [4], the “AST (U/L)” value is 7.91 ± 2.21 U/L, the “Bun” value is recorded as 3.48 ± 0.24 mmol/L and the “Cr” value was 53.90 ± 1.81 µmol/L.

On to `COc1cc2c3c(c1OC)-c1ccccc1CC3N(C(=O)c1ccccc1)CC2` (centres unmarked) [Compound 6a, Benzoylnuciferine], for which, in the data set with hyperlipidemia rats [1], the “CAT (U/mgprot)” value was determined as 26.06 ± 2.69 U/mgprot, the “GSH (μmol/gprot)” value is 360.02 ± 43.63 μmol/gprot, the “GSH-Px (U/mgprot)” value is given as 550.96 ± 60.97 U/mgprot and the “HL (U/mgprot)” value stood at 0.35 ± 0.03 U/mgprot. In the data set with hyperlipidemia rats [1], the “LPL (U/mgprot)” value amounted to 0.27 ± 0.03 U/mgprot, the “MDA (nmol/mgprot)” value was 0.94 ± 0.27 nmol/mgprot, the “NEFA (μmol/g prot)” value is listed as 107.69 ± 6.44 μmol/g prot and the “TG (mmol/g prot)” value stood at 0.10 ± 0.02 mmol/g prot. Also, in the data set on hyperlipidemia rats [2], the “Kidney index (%)” value is reported as 0.68 ± 0.04 % and the “Liver index (%)” value is on record as 4.58 ± 0.29 %. The “Liver appearance (photographs, FIG. 8)” value with hyperlipidemia rats [3] was “more brittle”. In the data set on hyperlipidemia rats [4], the “LDL-C” value was found to be 0.54 ± 0.09 mmol/L, the “TC” value is 1.94 ± 0.18 mmol/L, the “TG” value turned out to be 0.56 ± 0.05 mmol/L and the “ALT (U/L)” value is recorded as 15.46 ± 8.79 U/L. In the data set with hyperlipidemia rats [4], the “AST (U/L)” value was 7.85 ± 2.23 U/L, the “Bun” value was 3.16 ± 0.17 mmol/L and the “Cr” value came to 51.82 ± 7.06 µmol/L.

Regarding `COc1cc2c3c(c1OC)-c1ccccc1C[C@H]3N(C)CC2` [Nuciferine], the “Expression level of TNF-α in liver (FIG. 12)” value in the data set with TNF-α is recorded as “decrease”. In the data set with IL-6, the “Expression level of IL-6 in liver (FIG. 11)” value was “decrease”. Moreover, in the data set on hyperlipidemia rats [1] (compared with the model group), the “HL and LPL contents in liver tissue, result in words” value was “best effect”; the “NEFA content in liver tissue, result in words” value is given as “significantly decreases”. Moreover, in the data set with hyperlipidemia rats [1], the “CAT (U/mgprot)” value is 28.44 ± 3.34 U/mgprot, the “GSH (μmol/gprot)” value is on record as 377.68 ± 137.77 μmol/gprot, the “GSH-Px (U/mgprot)” value stood at 720.65 ± 59.57 U/mgprot and the “HL (U/mgprot)” value was 0.47 ± 0.05 U/mgprot. Moreover, in the data set on hyperlipidemia rats [1], the “LPL (U/mgprot)” value is recorded as 0.43 ± 0.07 U/mgprot, the “MDA (nmol/mgprot)” value was determined as 0.92 ± 0.15 nmol/mgprot, the “NEFA (μmol/g prot)” value came to 99.87 ± 8.25 μmol/g prot and the “TG (mmol/g prot)” value is recorded as 0.08 ± 0.01 mmol/g prot. Also, the “Oil red O-stained liver sections: lipid accumulation (FIG. 10)” value with hyperlipidemia rats [5] is on record as “reduced fat accumulation”. In the data set on hyperlipidemia rats [2], the “Kidney index (%)” value is on record as 0.68 ± 0.04 % and the “Liver index (%)” value turned out to be 4.52 ± 0.30 %. In the data set on hyperlipidemia rats [3], the “HE-stained liver tissue: lipid vacuoles and inflammatory infiltration (FIG. 9)” value is given as “lipid vacuoles in hepatocytes are significantly reduced”. In the data set on hyperlipidemia rats [4] (compared with the model group), the “Content of HDL-C in the serum, result in words” value is “significantly increases”; the “Serum AST and ALT contents, result in words” value is given as “best effect”. Moreover, in the data set on hyperlipidemia rats [4], the “LDL-C” value turned out to be 0.53 ± 0.12 mmol/L, the “TC” value was determined as 1.90 ± 0.19 mmol/L, the “TG” value turned out to be 0.48 ± 0.04 mmol/L and the “ALT (U/L)” value is recorded as 13.97 ± 5.71 U/L. Moreover, in the data set with hyperlipidemia rats [4], the “AST (U/L)” value was found to be 6.43 ± 1.56 U/L, the “Bun” value is reported as 3.27 ± 0.22 mmol/L and the “Cr” value is 52.59 ± 4.81 µmol/L. For the same compound, the “OB/% (oral bioavailability)” value in data set [6] is 34.43%.
